Measurements: PubChem BioAssay (NCI)
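The compound was tested at five concentrations on cells cultured in 96-well plates, with a 48-hour exposure period. Here, GI50 denotes the concentration required for 50% inhibition of growth. TGI: total growth inhibition.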

Key:
Assay in all cases: DTP human tumour cell line panel, 48 h
[1] = system: M14 melanoma
[2] = system: SNB-75 CNS
[3] = system: PC-3 prostate
[4] = system: OVCAR-5 ovarian
[5] = system: RPMI-8226 leukemia
[6] = system: EKVX NSCLC
[7] = system: MOLT-4 leukemia
[8] = system: NCI-H460 lung
[9] = system: COLO 205 colon
[10] = system: DU-145 prostate

Compound | TGI [1] | TGI [2] | TGI [3] | TGI [4] | TGI [5] | TGI [6] | TGI [7] | TGI [8] | TGI [9] | TGI [10] | GI50 [1] | GI50 [2] | GI50 [3] | GI50 [10] | GI50 [5] | GI50 [9] | GI50 [6] | GI50 [7] | GI50 [8] | GI50 [4]
CN(C)CCCn1c(-c2ccc(Br)cc2)csc1=Nc1ccccc1 | 32.9 µM | 29.8 µM | 25.2 µM | 36.3 µM | 44.4 µM | 23.8 µM | 59.2 µM | 39.4 µM |  |  |  |  |  |  |  |  |  |  |  | 
CCN(CC)C(=O)Cc1[nH][nH]c(=O)c1C(=O)N(CC)CC | > 100 µM | > 100 µM |  |  | > 100 µM | > 100 µM | > 100 µM | > 100 µM | > 100 µM |  |  |  |  |  |  |  |  |  |  | 
Cc1cc2nc3c(N)nn(CCCN(C)C)c3nc2cc1C | > 100 µM | > 100 µM | > 100 µM | > 100 µM | > 100 µM | > 100 µM |  | > 100 µM | > 100 µM | > 100 µM |  |  |  |  |  |  |  |  |  | 
C/C(=C\COP(=O)(O)OP(=O)(O)O)CC/C=C(\C)CNc1c(F)c(F)c(F)c(F)c1F | > 100 µM | > 31.6 µM | > 100 µM | > 100 µM |  | > 100 µM | > 100 µM | > 100 µM | > 100 µM | > 100 µM |  |  |  |  |  |  |  |  |  | 
COC1=CC(=O)C2(C=C1OC)OC[C@H]1Oc3c(ccc4c3C=CC(C)(C)O4)C(=O)[C@H]12 (some centres not stated) | > 100 µM | > 100 µM |  | > 100 µM | 49.3 µM | > 100 µM | 85.6 µM | > 100 µM | > 100 µM |  |  |  |  |  |  |  |  |  |  | 
C#C[C@]1(O)CC[C@H]2[C@@H]3CCC4=C/C(=N/OC(=O)c5cccc6cc7ccccc7nc56)CC[C@@H]4[C@H]3CC[C@@]21CC | > 100 µM | > 100 µM | > 100 µM | > 100 µM | > 100 µM |  | > 100 µM | > 100 µM | > 100 µM | > 100 µM |  |  |  |  |  |  |  |  |  | 
O=C1C=C2SC3C[C@@]24CC1(O)[N+]1=c2c4c(c(O)c4c2=C(C=N4)CC1)N3 |  | 3.23 µM |  | 3.8 µM | 1.62 µM | 40.9 µM | 0.859 µM | 4.26 µM | 0.332 µM |  |  |  |  |  |  |  |  |  |  | 
CCCOC(=O)CCC(NC(=O)c1ccc(Nc2nc3ccccc3nc2-c2cccs2)cc1)C(=O)OCCC (configuration not stated) |  |  |  | > 100 µM | > 100 µM | > 100 µM | > 100 µM |  | > 100 µM |  |  |  |  |  |  |  |  |  |  | 
CCCNC(=O)c1cc(OC)c(OC)cc1NC(=O)C12CC3CC(CC(C3)C1)C2 | 28.5 µM |  | 35.1 µM | 36.6 µM | 92.7 µM | 32.3 µM | > 100 µM | 43.1 µM | 56.6 µM | 35.5 µM |  |  |  |  |  |  |  |  |  | 
O=S(c1ccc(O)cc1)c1ccc(O)cc1 | > 100 µM | > 100 µM |  | > 100 µM | > 100 µM | > 100 µM | > 100 µM | > 100 µM | > 100 µM |  |  |  |  |  |  |  |  |  |  | 
C=CCSC1=N/C(=C\c2ccc(C)cc2)C(=O)N1CC=C | > 100 µM |  | 70 µM | > 100 µM | 31.9 µM | 34.1 µM |  | > 100 µM | 42 µM | > 100 µM |  |  |  |  |  |  |  |  |  | 
O=C1c2cccc3cc([N+](=O)[O-])cc(c23)C(=O)N1c1ccc(OCCN2CCCC2)cc1 | 47.1 µM | 67.1 µM | > 100 µM | 51.7 µM |  | 71.3 µM | 56.7 µM | 21.3 µM | 38.3 µM | > 100 µM |  |  |  |  |  |  |  |  |  | 
COC(OC)c1cccc2c1C(=O)CCC1(CC2)OCCCCO1 | > 100 µM | > 100 µM |  | > 100 µM | > 100 µM |  | > 100 µM | > 100 µM | > 100 µM |  |  |  |  |  |  |  |  |  |  | 
NS(=O)(=O)c1ccc(Nc2c3ccccc3nc3c(C(=O)NC(CO)(CO)CO)cccc23)cc1 | 0.39 µM |  | 0.814 µM | 0.709 µM | 0.683 µM | > 1 µM | 0.195 µM | 0.248 µM | 0.175 µM | 0.812 µM |  |  |  |  |  |  |  |  |  | 
Cc1ccc2c(c1)CC1(Cc3cc(C)ccc3C1=O)C2=O | > 100 µM | > 100 µM | > 100 µM | > 100 µM | > 100 µM | > 100 µM | > 100 µM | > 100 µM |  | > 100 µM |  |  |  |  |  |  |  |  |  | 
O=C(c1ccccc1)c1nn(-c2cccc(Cl)c2)c2nc3nc(-c4ccccc4)cc(=O)n3nc12 | > 25 µM | > 25 µM | > 25 µM |  | > 25 µM | > 25 µM | > 25 µM | > 25 µM | > 25 µM | > 25 µM | > 25 µM | > 25 µM | > 25 µM | > 25 µM | > 25 µM | > 25 µM | > 25 µM | > 25 µM | > 25 µM | 
CN1C/C(=C\c2ccccc2)C2=NN(C(N)=S)[C@H](c3ccccc3)[C@@H]2C1 | > 100 µM |  |  | > 100 µM |  | > 100 µM | > 100 µM | > 100 µM | > 100 µM |  |  |  |  |  |  |  |  |  |  | 
C=CC[PH+](c1ccccc1)c1ccccc1.C=CC[PH+](c1ccccc1)c1ccccc1.[Pt+2].[S-]c1nc2ccccc2[nH]1.[S-]c1nc2ccccc2[nH]1 |  | 3.89 µM | 5.58 µM | 5.42 µM | 3.22 µM | > 100 µM | > 100 µM |  | 6.56 µM | 42.8 µM |  | 1.2 µM | 1.62 µM | 3.33 µM | 0.401 µM | 2.02 µM | 2.36 µM | 2.87 µM |  | 2.14 µM
NC1=Nc2ncccc2C(=O)NN1 | > 10 µM | > 10 µM | > 10 µM | > 10 µM | > 10 µM | > 10 µM | > 10 µM | > 10 µM |  | > 10 µM |  |  |  |  |  |  |  |  |  | 
C(/C=C(\Nc1ccccc1)c1ccc2ccccc2c1)=Nc1ccccc1 | 6.14 µM | 8.39 µM | 11.8 µM | 9.86 µM | 5.67 µM |  | 2.62 µM | 11.9 µM | 4.1 µM | 6.29 µM |  |  |  |  |  |  |  |  |  | 
CC(NC(CC12CC3CC(CC(C3)C1)C2)C(N)=O)c1ccccc1 (configuration not stated) | 45.7 µM |  | > 100 µM | 42.5 µM | 40.5 µM | > 100 µM | 39.6 µM | 36.6 µM | 28.7 µM | > 100 µM |  |  |  |  |  |  |  |  |  | 
Cc1cccc(NC(=S)NNC(=O)c2cc(-c3ccccc3)nc3ccccc23)c1 | > 100 µM | > 100 µM | 83.3 µM | > 100 µM | 83.6 µM |  | 84.3 µM | 85.9 µM | 40.1 µM | > 100 µM |  |  |  |  |  |  |  |  |  | 
